Common to all, as to experiment: growth of human tumour cells (NCI), 48 h
Experiment [1] has as its system NCI/ADR-RES ovarian.
Experiment [2] has as its system CAKI-1 renal.
Experiment [3] relates to HT29 colon.
Experiment [4] relates to NCI-H522 lung.
Experiment [5] concerns SF-268 CNS.
In experiment [6] the test system is NCI-H226 lung.
For experiment [7], the system named is SF-539 CNS.
Experiment [8] relates to MDA-MB-435.
The test system of experiment [9] is SNB-19 CNS.
Experiment [10] has as its system SK-MEL-2 melanoma.

Several values for one entry are separate records, joined by “and”; a condition that tells them apart may be missing. Equal entries are not always repeated.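 Following 48 hours of exposure in 96-well plates, responses at five concentrations were used to interpolate endpoints linearly. Here, GI50 denotes the concentration required for 50% inhibition of growth. The concentration for full growth arrest is given as TGI.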

In the case of `O=C(NCc1ccc(Cn2c(=O)sn(-c3ccccc3)c2=O)cc1)OCc1ccc2c(Br)cc(Br)c(O)c2n1`, the GI50 in experiment [1] was 1.2 µM; in [2], 0.404 µM; in experiment [3], 0.539 µM; in experiment [4] it was 0.309 µM; in experiment [5], 1.46 µM; in experiment [6], 1.02 µM. The GI50 in experiment [7] is 0.793 µM; in experiment [8], 0.427 µM; in experiment [9], 1.55 µM; in experiment [10], 1.34 µM. Also, the TGI in [1] was determined as 7.06 µM; in [2], 1.67 µM; in experiment [3] it was 1.89 µM; in experiment [4] it was 1.08 µM; in [5], 2.88 µM; in [6] it was 2.41 µM. The TGI in experiment [7] stood at 2.07 µM; in experiment [8], 1.59 µM; in experiment [9], 2.9 µM; in [10] it was 2.82 µM.
Regarding `Oc1[nH]c2ccc(Cl)cc2c1/C=c1/ccc2c(c1)N=C(c1ccc(F)cc1)N=2`, the GI50 in [1] was 1.87 µM; in experiment [2] it was 4.08 µM; in experiment [3], 1.93 µM; in experiment [4], 1.99 µM; in [5], 2.16 µM; in experiment [6], 8.22 µM. The GI50 is 2.24 µM in experiment [7], 1.62 µM in experiment [8], 2.08 µM in [9] and 2.87 µM in experiment [10]. For the same compound, the TGI in [1] was determined as 3.58 µM; in experiment [2], 20.3 µM; in experiment [3], 3.5 µM; in experiment [4], 4.32 µM; in experiment [5] it was 4.37 µM; in experiment [6] it was 23.2 µM. The TGI in experiment [7] stood at 5 µM; in experiment [8], 3.45 µM; in experiment [9], 5.14 µM; in experiment [10], 6.81 µM.
In the case of `CN(C)c1ccc(Nc2cc(-c3cccc(OC(F)(F)F)c3)nc3ccc(N4CCCC4)cc23)cc1`, the GI50 in [1] is 1.92 µM; in experiment [2], 1.75 µM; in experiment [3] it was 2.18 µM; in [4], 2.03 µM; in experiment [5], 1.85 µM; in experiment [6] it was 3.49 µM. The GI50 in [7] was 1.77 µM; in experiment [8] it was 1.82 µM; in experiment [9], 3.32 µM; in [10], 12.4 µM. Also, the TGI in [1] was 3.88 µM; in [2], 3.57 µM; in experiment [3], 4.59 µM; in [4], 4.73 µM; in [5], 3.54 µM; in [6], 15.4 µM. Also, the TGI was 3.36 µM in [7], 3.37 µM in [8], 13.7 µM in experiment [9] and 26.5 µM in [10].
Regarding `NC(=O)c1ccc2nc(-c3ccc(Oc4ccc(Cl)cc4)cc3)[nH]c2c1`, the GI50 in experiment [1] is > 75 µM and 13.3 µM; in experiment [2] it was 6.4 µM and 16.5 µM; in experiment [3], 21.6 µM and 12.3 µM; in experiment [4], 18.9 µM and 19.9 µM; in experiment [5] it was 36.7 µM and 19.2 µM; in [6], 49.1 µM and 14 µM. In addition, the GI50 in experiment [7] is 27.6 µM and 13 µM; in [8], 34.4 µM and 14.5 µM; in experiment [9], > 75 µM and 22.5 µM; in experiment [10], 18.3 µM and 21.2 µM. Also, the TGI in [1] was > 75 µM and 32.9 µM; in experiment [2], 39.6 µM and 49.8 µM; in [3], 75 µM and 28.1 µM; in [4] it was 75 µM and 75.2 µM; in [5], 75 µM and 46.2 µM; in [6], 75 µM and 57.6 µM. The TGI is 75 µM and 28 µM in [7]; 75 µM and 31.2 µM in experiment [8]; > 75 µM and 52.6 µM in [9]; 75 µM and 40.2 µM in [10].

The values above are taken from PubChem BioAssay (NCI).
